Earlier results, collected in patent US20240199640A1, “NEGATIVE ALLOSTERIC MODULATORS OF METABOTROPIC GLUTAMATE RECEPTOR 2” (priority 2021, published 2024).

Tests used:
[1] = system: central mGlu2 and mGlu3 receptors; conditions: in vivo; cited from earlier work
mouse = conditions: normal animals; cited from earlier work
[2] = system: Aβ-induced neurodegeneration; conditions: cited from earlier work
rat = conditions: normal animals; cited from earlier work
C57Bl6/J mice = conditions: cited from earlier work
Helpless (H) mice = conditions: cited from earlier work; for activity in the tail suspension test: Helpless (H) mice
mice = conditions: treated mice; cited from earlier work
[3] = treatment for 7 days; cited from earlier work
[4] = system: social isolation-reared mice; conditions: cited from earlier work
[5] = system: olfactory bulbectomized rats; conditions: repeated administration for 14 days; cited from earlier work
[6] = conditioned fear stress; cited from earlier work

SMILES	hypolocomotor effect of mGlu2/3 agonist (LY379268) [1]	Antidepressant-like effects in mouse tail-suspension test (mouse)	Aβ-induced neurodegeneration [2]	Antidepressant-like effects in rat forced swim test (rat)	immobility time in the FST (C57Bl6/J mice)	activity in the tail suspension test (Helpless (H) mice)	marble-burying behavior (mice)	freezing behavior [6]	further results
N[C@](CC1c2ccccc2Oc2ccccc21)(C(=O)O)[C@H]1C[C@@H]1C(=O)O [LY341495]	achieved the same result	Antidepressant-like effects	prevented	Antidepressant-like effects	dose-dependently reduced	active	significantly reduce		antidepressant effect in helpless mice (Helpless (H) mice; acute administration): potent antidepressant effect
CCS(=O)(=O)N(Cc1cccnc1)c1cccc(-c2ccc(C#N)cc2)c1 [LY566332]			amplified						
N[C@]1(C(=O)O)[C@H]2[C@@H](C[C@H]1OCc1ccc(Cl)c(Cl)c1)[C@]2(F)C(=O)O [MGS0039]		Antidepressant-like effects		Antidepressant-like effects			reduced	significantly decreased	number of escape failures [3]: significantly reduced; increased immobility in the FST [4]: reversed; hyperactivity in the open field test [5]: attenuated; learning deficit in the passive avoidance test [5]: attenuated; spontaneous locomotor activity (mice): no significant change
Cc1cc(-c2cccc(C3=Nc4cc(C)c(C(F)(F)F)cc4NC(=O)C3)c2)cc(C)n1 [RO4491533]	reversed				dose-dependently reduced	active			
CN1C(=O)CN=C(c2ccccc2)c2cc(Cl)ccc21 [diazepam]								significantly decreased	
